Like-named read-outs stand apart in the source and are kept apart here.
Columns and labels:
hA2AAR = target: T1, hA2AAR (Homo sapiens, UniProt P29274); assay: Radioligand binding competition, [3H]ZM241385, membranes from HeLa-A2A cells; settings: for % at 1 μM hA2A (percentage displacement of specific binding): [3H]ZM241385, human HeLa cells, n = 2
T1 construct: expressed in transfected cells; host or cells: HeLa (HeLa-A2A) cell membranes
Protocol: (§1) All ligands reported in Tables 1–5 were obtained and tested as racemic mixtures. The whole set was evaluated in silico with a combination of a Rdkit[37] PAINS filter and Instant JChem from Chemaxon (https://www.chemaxon.com), to rule out the possibility that these ligands can be promiscuous pan-assay interference compounds (PAINS) and to assess their bioavailability, respectively. […] The stereoisomers of selected compounds were obtained by chiral resolution and tested at the four human AR subtypes in their enantiopure forms (Table 6).
(§2) A brief description is given below. […] Non-specific binding was determined in the presence of 10 μM R-PIA. The reaction mixture was incubated at 25 °C for 60 min. […] The reaction mixture was incubated at 25 °C for 30 min. […] The reaction mixture was incubated at 25 °C for 30 min. […] Non-specific binding was determined in the presence of 100 μM R-PIA. […] After the incubation time, membranes were washed and filtered and radioactivity was detected in a MicroBeta TriLux reader (PerkinElmer).

hA3AR = target: T2, hA3AR (Homo sapiens, UniProt P0DMS8); assay: Radioligand binding competition, [3H]NECA, membranes from HeLa-A3 cells; settings: for % at 1 μM hA3 (percentage displacement of specific binding): [3H]NECA, human HeLa cells, n = 2
T2 construct: expressed in transfected cells; host or cells: HeLa (HeLa-A3) cell membranes
T2 sequence (P0DMS8 1-318): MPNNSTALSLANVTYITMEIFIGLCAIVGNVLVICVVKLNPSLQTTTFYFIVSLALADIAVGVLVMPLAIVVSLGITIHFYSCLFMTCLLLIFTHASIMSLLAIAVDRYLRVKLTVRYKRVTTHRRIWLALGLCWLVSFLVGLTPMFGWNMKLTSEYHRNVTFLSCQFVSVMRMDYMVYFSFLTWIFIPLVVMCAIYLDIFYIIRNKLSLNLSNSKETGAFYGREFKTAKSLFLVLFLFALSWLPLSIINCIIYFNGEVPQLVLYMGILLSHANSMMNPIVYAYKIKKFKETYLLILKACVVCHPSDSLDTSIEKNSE
Protocol: as §1, §2

hA1AR = target: T3, hA1AR (Homo sapiens, UniProt P30542); assay: Radioligand binding competition, [3H]DPCPX, membranes from CHO-A1 cells; settings: 1 μM, [3H]DPCPX, human CHO cells, n = 2
T3 sequence (P30542 1-326): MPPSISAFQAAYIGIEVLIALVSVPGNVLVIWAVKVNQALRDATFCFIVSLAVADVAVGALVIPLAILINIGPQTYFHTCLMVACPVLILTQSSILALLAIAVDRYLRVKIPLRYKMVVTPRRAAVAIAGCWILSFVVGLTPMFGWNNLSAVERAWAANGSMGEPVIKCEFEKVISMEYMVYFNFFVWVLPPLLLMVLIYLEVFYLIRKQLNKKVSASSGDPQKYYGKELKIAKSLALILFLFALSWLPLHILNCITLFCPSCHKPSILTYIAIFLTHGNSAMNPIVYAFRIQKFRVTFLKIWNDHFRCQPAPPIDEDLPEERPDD
Protocol: as §1, §2

hA2BAR = target: T4, hA2BAR (Homo sapiens, UniProt P29275); assay: Radioligand binding competition, [3H]DPCPX, membranes from HEK-293-A2B cells; set-up: Exp. dG: unit not given here; settings: for Ki: read-out: Ki hA2B; for Exp. dG: experimental binding free energy, Supplementary Table S3, unit not given (errors in kcal/mol); for % at 1 μM hA2B (percentage displacement of specific binding): [3H]DPCPX, human HEK-293 cells, n = 2
T4 construct: host or cells: HEK-293 (HEK-293-A2B) cell membranes
T4 sequence (P29275 1-332): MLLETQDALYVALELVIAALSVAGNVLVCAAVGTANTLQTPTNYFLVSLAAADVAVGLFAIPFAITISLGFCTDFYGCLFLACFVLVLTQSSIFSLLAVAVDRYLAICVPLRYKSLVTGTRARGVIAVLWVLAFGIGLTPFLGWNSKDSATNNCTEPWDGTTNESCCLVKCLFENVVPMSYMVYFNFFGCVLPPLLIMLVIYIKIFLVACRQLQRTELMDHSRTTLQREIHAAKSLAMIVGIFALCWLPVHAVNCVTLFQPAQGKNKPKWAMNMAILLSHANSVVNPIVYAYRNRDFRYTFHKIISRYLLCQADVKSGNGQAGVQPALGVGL
Protocol: as §1, §2

[1] = displacement of specific [3H]DPCPX binding in human HEK-293 cells, n = 3

T1 sequence (P29274 whole entry): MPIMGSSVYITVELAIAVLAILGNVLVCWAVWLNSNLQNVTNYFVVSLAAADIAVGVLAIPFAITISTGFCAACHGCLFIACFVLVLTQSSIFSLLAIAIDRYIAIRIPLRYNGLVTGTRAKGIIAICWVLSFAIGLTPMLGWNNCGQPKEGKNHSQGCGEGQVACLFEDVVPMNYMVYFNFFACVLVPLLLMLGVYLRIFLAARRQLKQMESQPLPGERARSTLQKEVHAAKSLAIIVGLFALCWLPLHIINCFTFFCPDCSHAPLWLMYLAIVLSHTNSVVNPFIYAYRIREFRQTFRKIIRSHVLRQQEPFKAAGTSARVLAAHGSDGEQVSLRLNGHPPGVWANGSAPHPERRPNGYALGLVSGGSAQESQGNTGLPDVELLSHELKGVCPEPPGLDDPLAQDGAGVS

SMILES	% at 1 μM hA2A (percentage displacement of specific binding) (hA2AAR) [%]	% at 1 μM hA3 (percentage displacement of specific binding) (hA3AR) [%]	% at 1 μM hA1 (percentage displacement of specific binding) (hA1AR) [%]	Ki (hA2BAR; [1]) [nM]	Exp. dG (hA2BAR)	% at 1 μM hA2B (percentage displacement of specific binding) (hA2BAR) [%]	Ki hA2B (hA2BAR; [1])	Ki (hA2AAR; displacement of specific [3H]ZM241385 binding in human HeLa cells, n = 3, read-out: Ki hA2A) [nM]	Ki (hA2BAR) [nM]	Ki (hA3AR; displacement of specific [3H]NECA binding in human HeLa cells, n = 3, read-out: Ki hA3) [nM]
CC1=C(C(=O)OC(C)C)C(c2cocn2)n2c(nc3ccc(Cl)cc32)N1 (stereo not shown) [17d]	1	20	27	102 ± 7	-9.528	–	–	–	–	–
CC1=C(C(=O)OC(C)C)[C@@H](c2ccco2)n2c(nc3cc(Cl)ccc32)N1 [(S)-16j]	19	6	48	2.04 ± 0.2	–	–	–	–	–	–
CCOC(=O)C1=C(C)Nc2nc3cc(Cl)ccc3n2C1c1cccs1 (stereo not shown) [16m]	2	1	3	–	–	41	–	–	–	–
CCOC(=O)C1=C(C)Nc2nc3cc(F)ccc3n2C1c1ccoc1 (stereo not shown) [16c]	21	2	29	13.7 ± 0.9	-10.72	–	–	–	–	–
CCOC(=O)C1=C(C)Nc2nc3cc(Br)c(Br)cc3n2C1c1ccsc1 (stereo not shown) [14w]	7	4	2	–	–	47	–	–	–	–
CC1=C(C(=O)OC(C)C)C(c2ccco2)n2c(nc3cc(Cl)c(Cl)cc32)N1 (stereo not shown) [14j]	12	7	43	117 ± 5	–	–	–	–	–	–
CC1=C(C(=O)OC(C)C)C(c2cocn2)n2c(nc3ccccc32)N1 (stereo not shown) [X, reference compound]	–	–	–	–	-10.04	–	–	–	–	–
CCOC(=O)C1=C(C)Nc2nc3cc(Br)c(Br)cc3n2C1c1ccco1 (stereo not shown) [14q]	17	2	1	–	–	37	–	–	–	–
CCOC(=O)C1=C(C)Nc2nc3cc(F)c(F)cc3n2C1c1ccco1 (stereo not shown) [14a]	2	2	1	44.1 ± 1.7	–	–	–	–	–	–
CC1=C(C(=O)OC(C)C)[C@H](c2ccco2)n2c(nc3cc(Br)ccc32)N1 [(R)-16r]	7	2	12	–	–	35	–	–	–	–
Nc1nc(NCCc2ccc(O)cc2)nc2nc(-c3ccco3)nn12 [ZM241385, 4-(2-[7-amino-2-(2-furyl)[1,2,4]triazolo[2,3-a][1,3,5]triazin-5-ylamino]ethyl)phenol, reference compound]	–	–	–	–	–	–	–	–	–	863 ± 4
CCOC(=O)C1=C(C)Nc2nc3cc(Br)ccc3n2C1c1ccco1 (stereo not shown) [16q]	29	33	18	26.9 ± 0.8	–	–	–	–	–	–
CCOC(=O)C1=C(C)Nc2nc3cc(Br)ccc3n2[C@@H]1c1ccoc1 [(R)-16s]	–	14	10	1.17 ± 0.1	–	–	–	–	–	–

Continued, in another order:

% at 1 μM hA2A (percentage displacement of specific binding) (hA2AAR) [%]	% at 1 μM hA3 (percentage displacement of specific binding) (hA3AR) [%]	% at 1 μM hA1 (percentage displacement of specific binding) (hA1AR) [%]	Ki (hA2BAR; [1]) [nM]	Exp. dG (hA2BAR)	% at 1 μM hA2B (percentage displacement of specific binding) (hA2BAR) [%]	Ki hA2B (hA2BAR; [1])	Ki (hA2AAR; displacement of specific [3H]ZM241385 binding in human HeLa cells, n = 3, read-out: Ki hA2A) [nM]	Ki (hA2BAR) [nM]	SMILES	Ki (hA3AR; displacement of specific [3H]NECA binding in human HeLa cells, n = 3, read-out: Ki hA3) [nM]
11	6	25	136 ± 7	-10.36	–	–	–	–	CC1=C(C(=O)OC(C)C)C(c2ccoc2)n2c(nc3ccc(F)cc32)N1 (stereo not shown) [15d]	–
2	3	4	–	–	50	–	–	–	CCOC(=O)C1=C(C)Nc2nc3ccc(Cl)cc3n2C1c1ccsc1 (stereo not shown) [15o]	–
31	8	4	–	–	36	–	–	–	CC1=C(C(=O)OC(C)C)C(c2ccoc2)n2c(nc3cc(Cl)c(Cl)cc32)N1 (stereo not shown) [14l]	–
21	5	26	25 ± 1.5	-9.361	–	–	–	–	CCOC(=O)C1=C(C)Nc2nc3ccc(F)cc3n2C1c1ccoc1 (stereo not shown) [15c]	–
–	12	26	0.94 ± 0.1	–	–	sub-nanomolar	–	–	CC1=C(C(=O)OC(C)C)[C@@H](c2ccco2)n2c(nc3cc(F)ccc32)N1 [(S)-16b]	–
1	4	2	61.1 ± 1.8	–	–	–	–	–	CC1=C(C(=O)OC(C)C)C(c2ccsc2)n2c(nc3cc(Br)ccc32)N1 (stereo not shown) [16x]	–
1	8	4	–	–	9	–	–	–	CC1=C(C(=O)OC(C)C)C(c2ccsc2)n2c(nc3cc(Br)c(Br)cc32)N1 (stereo not shown) [14x]	–
1	3	1	187 ± 2	-9.172	–	–	–	–	CCOC(=O)C1=C(C)Nc2nc3cc(F)ccc3n2C1c1ccsc1 (stereo not shown) [16g]	–
1	6	2	359 ± 4	–	–	–	–	–	CC1=C(C(=O)OC(C)C)C(c2ccsc2)n2c(nc3cc(Cl)c(Cl)cc32)N1 (stereo not shown) [14p]	–
1	5	2	75.5 ± 3.2	-9.71	–	–	–	–	CC1=C(C(=O)OC(C)C)C(c2ccsc2)n2c(nc3cc(F)ccc32)N1 (stereo not shown) [16h]	–
–	2	2	8.2 ± 1.1	–	–	–	509 ± 6	< 10	CC1=C(C(=O)OC(C)C)C(c2ccoc2)n2c(nc3cc(Br)ccc32)N1 (stereo not shown) [16t]	–
2	10	16	67.5 ± 3.1	-9.777	–	–	–	–	CCOC(=O)C1=C(C)Nc2nc3ccc(F)cc3n2C1c1ccco1 (stereo not shown) [15a]	–
1	1	1	764 ± 11	-8.34	–	–	–	–	CC1=C(C(=O)OC(C)C)C(c2ccsc2)n2c(nc3ccc(F)cc32)N1 (stereo not shown) [15h]	–
–	6	32	2.97 ± 0.4	–	–	–	–	–	CC1=C(C(=O)OC(C)C)[C@@H](c2ccco2)n2c(nc3cc(Br)ccc32)N1 [(S)-16r]	–

Source: PMC9841532, “Exploring the Effect of Halogenation in a Series of Potent and Selective A2B Adenosine Receptor Antagonists” (Journal of Medicinal Chemistry, 2022)
